Measured values as given in ChEMBL document CHEMBL1201862, “PubChem BioAssay data set” (2004).
Active and inactive are the calls of the source.

How the values were obtained:
[1] = target: Voltage-dependent T-type calcium channel subunit alpha-1H (Homo sapiens, UniProt O95180); assay: Cav3.2 T-type channel inhibitors, cell-based, synthetic library set 1, calcium flux (AID 493022); format: functional
Perilipin-1/ABHD5 = Perilipin-1/ABHD5 (Homo sapiens, UniProt O60240+Q8WTS1); assay: Luminescence-based biochemical high throughput dose response assay for inhibitors of the interaction of the lipase co-activator protein, abhydrolase domain containing 5 (ABHD5) with perilipin-1 (PLIN1) (2K validation set). [Related pubchem assays (depositor defined):AID493027, AID493057]
[2] = target: 1-acylglycerol-3-phosphate O-acyltransferase ABHD5/Perilipin-5 (Homo sapiens, UniProt Q00G26+Q8WTS1); assay: Luminescence-based biochemical high throughput dose response assay for inhibitors of the interaction of the lipase co-activator protein, abhydrolase domain containing 5 (ABHD5) with perilipin-5 (MLDP; PLIN5) (2K validation set). [Related pubchem assays (depositor defined):AID493035, AID493241]
1-acylglycerol-3-phosphate O-acyltransferase ABHD5/Perilipin-5, sequence (Q00G26 whole entry, the tested form may be a part): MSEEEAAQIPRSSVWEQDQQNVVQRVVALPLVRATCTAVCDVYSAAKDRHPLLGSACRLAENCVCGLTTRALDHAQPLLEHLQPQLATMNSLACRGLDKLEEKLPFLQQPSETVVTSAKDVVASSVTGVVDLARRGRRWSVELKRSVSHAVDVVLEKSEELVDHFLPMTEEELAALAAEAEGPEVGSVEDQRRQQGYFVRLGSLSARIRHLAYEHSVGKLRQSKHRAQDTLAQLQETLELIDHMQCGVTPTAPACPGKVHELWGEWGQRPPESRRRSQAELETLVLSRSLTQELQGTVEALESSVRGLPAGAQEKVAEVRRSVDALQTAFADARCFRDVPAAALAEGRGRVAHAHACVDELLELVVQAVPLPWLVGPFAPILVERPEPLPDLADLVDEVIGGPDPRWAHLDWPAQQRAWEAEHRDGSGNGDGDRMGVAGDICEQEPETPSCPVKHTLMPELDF
1-acylglycerol-3-phosphate O-acyltransferase ABHD5/Perilipin-5, sequence (Q8WTS1 whole entry, the tested form may be a part): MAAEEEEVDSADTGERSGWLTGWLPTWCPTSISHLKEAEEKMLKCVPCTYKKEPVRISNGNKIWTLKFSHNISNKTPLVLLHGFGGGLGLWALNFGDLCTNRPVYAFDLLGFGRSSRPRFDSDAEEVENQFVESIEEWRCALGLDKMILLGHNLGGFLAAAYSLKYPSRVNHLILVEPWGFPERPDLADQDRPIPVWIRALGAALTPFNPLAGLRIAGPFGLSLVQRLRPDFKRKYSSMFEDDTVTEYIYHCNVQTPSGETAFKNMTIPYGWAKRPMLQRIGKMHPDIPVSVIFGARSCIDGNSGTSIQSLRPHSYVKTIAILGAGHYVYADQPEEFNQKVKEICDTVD

Genome polyprotein = Genome polyprotein (dengue virus type 2, UniProt P29990); assay: Dengue-2 NS5 methyltransferase inhibitors, primary screen, biochemical, confirmation dose response (AID 588689); format: functional
Genome polyprotein, sequence (P29990 2492-3391 limits assumed): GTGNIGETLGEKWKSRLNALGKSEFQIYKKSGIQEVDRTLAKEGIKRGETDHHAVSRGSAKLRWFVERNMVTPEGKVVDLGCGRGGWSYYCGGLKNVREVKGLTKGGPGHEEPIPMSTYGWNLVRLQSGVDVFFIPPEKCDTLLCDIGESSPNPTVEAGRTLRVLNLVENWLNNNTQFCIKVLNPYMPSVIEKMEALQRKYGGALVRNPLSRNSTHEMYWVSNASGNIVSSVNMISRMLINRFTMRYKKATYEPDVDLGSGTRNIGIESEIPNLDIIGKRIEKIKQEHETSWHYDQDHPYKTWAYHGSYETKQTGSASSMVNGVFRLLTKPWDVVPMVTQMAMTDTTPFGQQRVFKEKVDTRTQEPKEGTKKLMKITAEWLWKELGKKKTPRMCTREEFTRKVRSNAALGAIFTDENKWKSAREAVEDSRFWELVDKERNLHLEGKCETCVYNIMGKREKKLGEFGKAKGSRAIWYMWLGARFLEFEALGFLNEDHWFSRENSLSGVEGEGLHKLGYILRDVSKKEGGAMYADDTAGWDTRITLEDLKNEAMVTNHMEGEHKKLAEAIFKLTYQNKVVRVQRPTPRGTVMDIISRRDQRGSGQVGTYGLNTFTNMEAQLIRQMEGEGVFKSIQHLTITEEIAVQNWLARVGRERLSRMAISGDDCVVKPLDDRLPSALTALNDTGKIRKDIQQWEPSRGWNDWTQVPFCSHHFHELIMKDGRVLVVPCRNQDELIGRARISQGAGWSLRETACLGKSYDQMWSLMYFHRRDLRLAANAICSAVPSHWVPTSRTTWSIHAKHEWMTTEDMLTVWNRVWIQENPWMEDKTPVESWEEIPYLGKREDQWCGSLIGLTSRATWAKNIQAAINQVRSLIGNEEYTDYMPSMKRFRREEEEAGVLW

Mu-type opioid receptor = Mu-type opioid receptor (Homo sapiens, UniProt P35372); assay: SAR Analysis of Antagonists of the MOR Receptor using an Image-Based Assay - Set 3. [Related pubchem assays (depositor defined):AID1777, AID1785, AID1786, AID1966, AID2133, AID2136, AID2284, AID2285, AID2420]; format: functional
Mu-type opioid receptor, sequence (P35372 whole entry): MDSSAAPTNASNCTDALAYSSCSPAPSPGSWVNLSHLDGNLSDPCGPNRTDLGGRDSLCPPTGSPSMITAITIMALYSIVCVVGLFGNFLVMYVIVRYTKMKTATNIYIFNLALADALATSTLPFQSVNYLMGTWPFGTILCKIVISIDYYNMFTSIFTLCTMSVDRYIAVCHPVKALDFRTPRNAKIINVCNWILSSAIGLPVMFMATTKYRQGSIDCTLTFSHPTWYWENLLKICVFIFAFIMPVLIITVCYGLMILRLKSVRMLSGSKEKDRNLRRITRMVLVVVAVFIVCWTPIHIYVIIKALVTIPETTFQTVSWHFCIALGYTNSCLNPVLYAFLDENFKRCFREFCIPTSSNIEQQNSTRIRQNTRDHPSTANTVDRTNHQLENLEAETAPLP

[3] = target: T1, Kappa-type opioid receptor (Homo sapiens, UniProt P41145); assay: SAR analysis of small molecule antagonists of the kappa opioid receptor via a luminescent beta-arrestin assay - Set 6. [Related pubchem assays (depositor defined):AID1777, AID1778, AID1785, AID1786, AID1966, AID2133, AID2136, AID2285]; format: functional
T1 sequence (P41145 whole entry): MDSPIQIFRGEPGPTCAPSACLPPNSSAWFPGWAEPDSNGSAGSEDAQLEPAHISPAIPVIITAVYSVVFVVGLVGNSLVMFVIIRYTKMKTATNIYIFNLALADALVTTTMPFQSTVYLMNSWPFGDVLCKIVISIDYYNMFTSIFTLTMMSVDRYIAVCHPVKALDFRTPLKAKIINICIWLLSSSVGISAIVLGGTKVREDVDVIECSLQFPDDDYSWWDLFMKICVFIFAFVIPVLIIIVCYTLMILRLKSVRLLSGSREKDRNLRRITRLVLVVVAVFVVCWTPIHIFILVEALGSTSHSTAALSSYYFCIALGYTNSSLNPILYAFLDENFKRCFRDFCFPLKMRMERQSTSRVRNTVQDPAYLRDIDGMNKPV

[4] = target: T1, Kappa-type opioid receptor; assay: SAR analysis of Antagonists of the Kappa Opioid Receptor (KOR) using an Image-Based Assay - Set 4. [Related pubchem assays (depositor defined):AID1777, AID1785]; format: functional
[5] = target: T1, Kappa-type opioid receptor; assay: SAR analysis of small molecule antagonists of the kappa opioid receptor via a luminescent beta-arrestin assay - Set 4. [Related pubchem assays (depositor defined):AID1777, AID1778, AID1785, AID1786, AID1966, AID2133, AID2136, AID2285]; format: functional
[6] = target: Delta-type opioid receptor (Homo sapiens, UniProt P41143); assay: SAR Analysis of Antagonists of the DOR Receptor using an Image-Based Assay - Set 3. [Related pubchem assays (depositor defined):AID1777, AID1785]; format: functional;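 note: U2OS cells expressing DOR1 and beta-arrestin GFP stimulated with 100 nM SNC80; imaging of GFP-tagged beta-arrestin moving into spots after receptor activation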
Delta-type opioid receptor, sequence (P41143 whole entry): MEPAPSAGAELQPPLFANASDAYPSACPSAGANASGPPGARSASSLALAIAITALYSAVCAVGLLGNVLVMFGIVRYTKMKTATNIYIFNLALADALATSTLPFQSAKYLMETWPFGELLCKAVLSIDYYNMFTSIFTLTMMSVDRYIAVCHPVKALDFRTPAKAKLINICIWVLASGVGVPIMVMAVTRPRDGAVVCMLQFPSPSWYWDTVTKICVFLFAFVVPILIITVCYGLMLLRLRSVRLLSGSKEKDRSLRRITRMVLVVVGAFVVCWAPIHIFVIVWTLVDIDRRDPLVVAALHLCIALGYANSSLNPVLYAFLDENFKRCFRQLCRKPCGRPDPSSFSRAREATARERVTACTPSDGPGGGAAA

[7] = system: Streptococcus sp. 'group A'; assay: growth inhibition of control SK(-) GAS strain, dose response, counter-screen for streptokinase expression inhibitor project, luminescence, kanamycin, BacTiterGlo, confirmation (AID 1900); format: functional, organism-based
[8] = Luminescence Cell-Based Dose Retest to Confirm Inhibitors of Cancer Stem Cells. [Related pubchem assays (depositor defined):AID2717, AID2721]; format: functional; conditions: Homo sapiens
[9] = Vero E6 cell cytotoxicity, dose response, cytotoxicity control for non-replicating M. tuberculosis project, secondary assay (AID 492998); format: functional, VeroE6; conditions: Vero C1008
Streptococcus = assay: Group A Streptococcus viability loss, dose response, counter-screen for streptokinase expression inhibitor project, luminescence, BacTiterGlo (AID 1915); format: functional, organism-based;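 note: potency for reduction of bacterial viability or growth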
cells = format: functional
Beta-galactosidase = Beta-galactosidase (Escherichia coli, UniProt Q8VNN2); assay: beta-galactosidase enzyme inhibitors and activators, dose response, artefact control for CCR6 antagonist project, biochemical, E. coli enzyme, set 3 (AID 504712); format: functional
Beta-galactosidase, sequence (Q8VNN2 whole entry): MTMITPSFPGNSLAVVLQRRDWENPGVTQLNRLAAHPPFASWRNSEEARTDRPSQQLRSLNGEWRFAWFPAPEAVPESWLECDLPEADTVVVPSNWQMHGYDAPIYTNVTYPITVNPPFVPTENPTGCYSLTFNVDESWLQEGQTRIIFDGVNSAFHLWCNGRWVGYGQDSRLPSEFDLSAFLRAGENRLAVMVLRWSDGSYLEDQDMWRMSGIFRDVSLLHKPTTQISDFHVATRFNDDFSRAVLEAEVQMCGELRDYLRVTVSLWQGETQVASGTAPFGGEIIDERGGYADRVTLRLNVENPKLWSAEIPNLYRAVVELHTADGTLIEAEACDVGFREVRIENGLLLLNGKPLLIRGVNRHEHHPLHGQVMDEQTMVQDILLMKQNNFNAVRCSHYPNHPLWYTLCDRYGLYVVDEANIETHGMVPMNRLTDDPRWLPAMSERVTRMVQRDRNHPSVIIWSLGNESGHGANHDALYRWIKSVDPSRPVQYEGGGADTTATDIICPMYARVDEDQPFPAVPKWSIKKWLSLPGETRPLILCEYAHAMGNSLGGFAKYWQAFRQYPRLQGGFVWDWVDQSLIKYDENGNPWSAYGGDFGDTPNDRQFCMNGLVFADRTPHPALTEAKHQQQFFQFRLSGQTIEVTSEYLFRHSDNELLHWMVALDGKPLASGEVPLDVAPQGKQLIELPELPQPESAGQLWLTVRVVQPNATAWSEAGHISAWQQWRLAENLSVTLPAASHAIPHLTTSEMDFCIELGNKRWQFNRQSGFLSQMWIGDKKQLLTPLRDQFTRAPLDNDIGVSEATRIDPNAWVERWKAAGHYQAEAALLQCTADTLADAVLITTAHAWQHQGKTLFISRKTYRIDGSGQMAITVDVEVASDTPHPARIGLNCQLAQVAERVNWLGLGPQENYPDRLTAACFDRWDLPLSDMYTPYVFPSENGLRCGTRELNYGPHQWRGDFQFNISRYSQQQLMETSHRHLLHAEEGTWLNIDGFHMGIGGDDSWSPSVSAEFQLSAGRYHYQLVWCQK

[10] = HepG2 cell cytotoxicity, dose response, cytotoxicity control for non-replicating M. tuberculosis project (AID 489018); format: functional; conditions: Mycobacterium tuberculosis
[11] = target: C-C chemokine receptor type 6 (Homo sapiens, UniProt P51684); assay: CCR6 receptor antagonists, dose response, cell-based, luminescent beta-arrestin readout (AID 504728); format: functional
C-C chemokine receptor type 6, sequence (P51684 whole entry): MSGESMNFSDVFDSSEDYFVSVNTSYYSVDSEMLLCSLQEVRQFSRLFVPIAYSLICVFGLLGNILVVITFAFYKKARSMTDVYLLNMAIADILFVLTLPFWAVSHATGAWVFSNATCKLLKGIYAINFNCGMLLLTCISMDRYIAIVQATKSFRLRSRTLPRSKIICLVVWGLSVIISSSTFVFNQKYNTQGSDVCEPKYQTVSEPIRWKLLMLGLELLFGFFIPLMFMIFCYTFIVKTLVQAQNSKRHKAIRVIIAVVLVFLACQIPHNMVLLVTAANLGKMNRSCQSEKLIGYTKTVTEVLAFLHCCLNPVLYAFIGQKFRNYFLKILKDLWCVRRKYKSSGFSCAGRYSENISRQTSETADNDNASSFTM

[12] = THP-1 cell cytotoxicity, dose response, cytotoxicity control for non-replicating M. tuberculosis project (AID 489025); format: functional
[13] = non-specific cell cytotoxicity, dose response, cytotoxicity control for PAX8 inhibitor project, plate reader, dry powder samples (AID 743021); format: functional, cell-based
[14] = target: Glutathione S-transferase omega-1 (Homo sapiens, UniProt P78417); assay: GSTO1 inhibitor potency, recombinant enzyme, late-stage follow-up, biochemical, SE-Rh probe, in-gel fluorescence, powder samples (AID 463081); format: functional
Glutathione S-transferase omega-1, sequence (P78417 whole entry): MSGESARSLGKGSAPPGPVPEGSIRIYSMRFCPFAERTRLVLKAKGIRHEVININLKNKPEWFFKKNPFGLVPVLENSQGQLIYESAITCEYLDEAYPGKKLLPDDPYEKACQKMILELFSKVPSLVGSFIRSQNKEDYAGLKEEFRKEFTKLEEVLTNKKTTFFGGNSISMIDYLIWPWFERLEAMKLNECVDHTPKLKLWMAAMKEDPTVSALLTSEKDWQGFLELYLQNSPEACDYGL

Protein RecA = target: T2, Protein RecA (Mycobacterium tuberculosis, UniProt P9WHJ3); assay: Fluorescence Cell-Free Homogeneous Dose Retest to Identify Inhibitors of RecA-Intein Splicing Activity. [Related pubchem assays (depositor defined):AID2097, AID2223, AID489010, AID492950]; format: functional
T2 sequence (P9WHJ3 whole entry): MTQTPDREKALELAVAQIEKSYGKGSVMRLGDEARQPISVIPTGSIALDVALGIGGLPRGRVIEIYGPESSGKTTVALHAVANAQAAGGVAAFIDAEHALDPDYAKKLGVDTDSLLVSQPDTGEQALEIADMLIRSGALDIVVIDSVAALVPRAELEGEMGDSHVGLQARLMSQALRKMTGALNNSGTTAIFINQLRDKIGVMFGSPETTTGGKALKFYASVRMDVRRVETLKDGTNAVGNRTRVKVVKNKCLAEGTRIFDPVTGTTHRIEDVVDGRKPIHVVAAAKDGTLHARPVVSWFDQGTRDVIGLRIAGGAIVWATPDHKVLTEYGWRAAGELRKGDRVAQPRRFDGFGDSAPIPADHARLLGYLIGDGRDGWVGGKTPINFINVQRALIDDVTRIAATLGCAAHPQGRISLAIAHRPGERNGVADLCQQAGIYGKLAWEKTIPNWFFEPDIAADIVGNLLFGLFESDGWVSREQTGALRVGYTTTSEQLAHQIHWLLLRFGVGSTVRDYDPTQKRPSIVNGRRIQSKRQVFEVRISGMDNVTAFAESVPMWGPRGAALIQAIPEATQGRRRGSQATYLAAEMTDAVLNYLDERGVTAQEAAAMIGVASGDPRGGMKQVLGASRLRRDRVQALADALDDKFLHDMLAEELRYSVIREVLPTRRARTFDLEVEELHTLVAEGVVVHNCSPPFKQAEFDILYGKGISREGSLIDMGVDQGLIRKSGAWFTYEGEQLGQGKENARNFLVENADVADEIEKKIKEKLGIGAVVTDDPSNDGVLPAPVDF

BJ [15] = assay: cytotoxicity toward BJ-TERT-LT-ST fibroblasts, dose response, cell-based, RAS-independent, luminescence (AID 1935); format: functional; conditions: Homo sapiens;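 note: BJ fibroblasts immortalized with TERT plus LT and ST oncogenes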
BJ [16] = assay: cytotoxicity toward BJ-TERT fibroblasts, dose response, cell-based, RAS-independent, luminescence (AID 1933); format: functional; conditions: Homo sapiens
BJ [17] = assay: cells; format: functional, cell-based; conditions: Homo sapiens
[18] = Late stage assay provider results from the probe development effort to identify inhibitors of GSTO1: luminescence-based biochemical dose response assay to determine cytotoxicity of inhibitor compounds. [Related pubchem assays (depositor defined):AID1515, AID1974, AID2175, AID2176, AID463081, AID463098, AID463101, AID463102, AID463110, AID463142] Panel member name: Assay 2: % Surviving cells, media plus FCS; format: toxicity, cell-based
[19] = cytotoxicity toward DRD oncogenic fibroblasts, dose response, cell-based, non-viral oncogenic, luminescence (AID 1934); format: functional; conditions: Homo sapiens
[20] = Late stage assay provider results from the probe development effort to identify inhibitors of GSTO1: luminescence-based […] dose response assay to determine cytotoxicity of inhibitor compounds. [Related pubchem assays (depositor defined):AID1515, AID1974, AID2175, AID2176, AID463081, AID463098, AID463101, AID463102, AID463110, AID463142] Panel member name: Assay 1: % Surviving cells, serum-free media; format: toxicity, cell-based
Paired box protein Pax-8 = Paired box protein Pax-8 (Homo sapiens, UniProt Q06710); assay: inhibitors of PAX8-driven TPO luciferase reporter, dose response, RMG-I cells, cherry-pick (AID 687027); format: functional, cell-based;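 note: luciferase reporter driven by Pax8 target thyroperoxidase promoter measured by SteadyGlo luminescence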
Paired box protein Pax-8, sequence (Q06710 whole entry): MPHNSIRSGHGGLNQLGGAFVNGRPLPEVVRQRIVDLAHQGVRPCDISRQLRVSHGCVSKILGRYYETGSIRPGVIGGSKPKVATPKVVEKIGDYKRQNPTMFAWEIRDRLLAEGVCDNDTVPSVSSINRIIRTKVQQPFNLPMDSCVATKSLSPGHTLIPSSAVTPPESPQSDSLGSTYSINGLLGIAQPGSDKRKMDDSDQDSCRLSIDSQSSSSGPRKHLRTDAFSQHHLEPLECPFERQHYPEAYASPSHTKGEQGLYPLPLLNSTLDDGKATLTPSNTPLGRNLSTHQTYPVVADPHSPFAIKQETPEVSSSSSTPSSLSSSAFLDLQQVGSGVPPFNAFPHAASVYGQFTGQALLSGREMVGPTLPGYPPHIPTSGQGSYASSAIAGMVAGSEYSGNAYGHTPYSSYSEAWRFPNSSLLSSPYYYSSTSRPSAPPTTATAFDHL

[21] = target: T3, Replicative DNA helicase DnaB (Mycobacterium tuberculosis, UniProt P9WMR3); assay: DnaB intein splicing inhibitors, dose response, biochemical, cell-free fluorescence (AID 449749); format: functional
T3 sequence (P9WMR3 whole entry): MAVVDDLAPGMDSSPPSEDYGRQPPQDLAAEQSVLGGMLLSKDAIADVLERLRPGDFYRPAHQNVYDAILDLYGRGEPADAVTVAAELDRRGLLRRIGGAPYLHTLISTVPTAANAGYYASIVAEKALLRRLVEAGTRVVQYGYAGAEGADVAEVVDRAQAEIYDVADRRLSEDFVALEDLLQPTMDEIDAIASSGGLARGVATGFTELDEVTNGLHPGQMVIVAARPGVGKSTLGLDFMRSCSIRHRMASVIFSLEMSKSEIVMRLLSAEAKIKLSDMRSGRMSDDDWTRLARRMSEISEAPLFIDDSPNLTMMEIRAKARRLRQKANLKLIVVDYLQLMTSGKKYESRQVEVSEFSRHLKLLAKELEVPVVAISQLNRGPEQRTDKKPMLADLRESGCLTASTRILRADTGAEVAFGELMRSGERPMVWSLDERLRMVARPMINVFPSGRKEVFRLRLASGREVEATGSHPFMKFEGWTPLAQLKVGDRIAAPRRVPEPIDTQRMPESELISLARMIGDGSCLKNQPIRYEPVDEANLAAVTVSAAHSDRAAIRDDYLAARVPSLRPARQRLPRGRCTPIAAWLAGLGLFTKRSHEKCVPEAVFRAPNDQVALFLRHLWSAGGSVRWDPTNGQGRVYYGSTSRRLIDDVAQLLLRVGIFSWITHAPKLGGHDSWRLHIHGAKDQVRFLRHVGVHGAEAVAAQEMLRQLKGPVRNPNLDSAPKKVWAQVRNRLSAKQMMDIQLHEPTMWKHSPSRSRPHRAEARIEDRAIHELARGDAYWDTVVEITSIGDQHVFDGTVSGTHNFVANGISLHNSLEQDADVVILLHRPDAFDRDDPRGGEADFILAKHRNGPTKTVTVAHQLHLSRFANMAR

[22] = target: T4, Microphthalmia-associated transcription factor (Homo sapiens, UniProt O75030); assay: TRPM1 promoter luciferase signal decrease, dose response, MITF inhibitor project, cell-based, SK-MEL-5, cherry-picked, set 3 (AID 493073); format: functional
T4 sequence (O75030 whole entry): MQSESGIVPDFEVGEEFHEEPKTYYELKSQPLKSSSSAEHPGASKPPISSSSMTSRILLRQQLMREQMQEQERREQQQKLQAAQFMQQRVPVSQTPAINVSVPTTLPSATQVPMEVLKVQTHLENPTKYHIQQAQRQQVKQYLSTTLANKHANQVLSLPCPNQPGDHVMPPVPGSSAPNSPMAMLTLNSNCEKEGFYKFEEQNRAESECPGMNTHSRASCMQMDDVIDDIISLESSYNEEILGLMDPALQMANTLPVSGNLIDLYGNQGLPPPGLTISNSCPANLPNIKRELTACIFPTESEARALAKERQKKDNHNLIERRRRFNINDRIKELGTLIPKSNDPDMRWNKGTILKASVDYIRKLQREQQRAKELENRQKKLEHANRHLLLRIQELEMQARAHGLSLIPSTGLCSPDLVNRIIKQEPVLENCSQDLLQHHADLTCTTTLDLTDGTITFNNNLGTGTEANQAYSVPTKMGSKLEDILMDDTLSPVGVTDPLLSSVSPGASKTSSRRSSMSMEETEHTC

Structure (SMILES): O=C(COc1ccccc1F)Nc1nnc(-c2ccc3c(c2)OCO3)o1
- EC50 [1]: 10 µM (active)

Structure (SMILES): CCOc1ccc(N2C(=O)NC(=O)/C(=C\c3cc(OC)c(OC)cc3[N+](=O)[O-])C2=O)cc1
- IC50 (Perilipin-1/ABHD5): 2.21 µM (active)
- IC50 [2]: 2.8 µM (active)
- IC50 (Genome polyprotein): 27.6 µM (active)

Structure (SMILES): COc1ccc(N2CCN(CCCCNC(=O)Cn3c(=O)c4cccn4c4c(C)ccnc43)CC2)cc1
- IC50 (Mu-type opioid receptor): > 32 µM (inactive)
- IC50 [3]: 1.59 µM (active)
- IC50 [4]: 0.00521 µM (active)
- IC50 [5]: 0.907 µM (active)
- IC50 [6]: > 32 µM (inactive)

Structure (SMILES): Cc1cc(NCc2ccccn2)n2nc(C)c(-c3ccc(Cl)cc3)c2n1
- EC50 [7]: 2.89 µM (active)
- AC50 [8]: 3.86 µM (active)
- CC50 [9]: 15.1 µM (active)
- EC50 (Streptococcus): 6.9 µM (active)
- IC50 (cells): 2.1 µM (active)
- IC50 (Beta-galactosidase): > 66.6 µM (inactive)
- CC50 [10]: 3.6 µM (active)
- IC50 [11]: > 66.6 µM (inactive)
- CC50 [12]: 6.61 µM (active)

Structure (SMILES): COc1ccc(N(C(=O)CCl)C(C(=O)NC2CCCCC2)c2cccnc2)cc1 (stereo not given)
- AC50 [13]: 3.18 µM (active)
- IC50 [14]: 0.067 µM (active)
- EC50 (Protein RecA): 0.619 µM (active)
- EC50 (BJ [15]): 7.37 µM (inconclusive)
- EC50 (BJ [16]): 1.01 µM (active)
- EC50 (BJ [17]): 4.5 µM (active)
- CC50 [18]: > 35 µM (inactive)
- EC50 [19]: 2.63 µM (inconclusive)
- CC50 [20]: > 45 µM (inactive)
- AC50 (Paired box protein Pax-8): 1.3 µM (active)
- AC50 [21]: 7.67 µM (active)
- AC50 [22]: 5.87 µM (active)
